Assay: wn = mass fraction of the nth substance listed
Details: 101 kPa, Liquid, Vibrating tube method, w1 = 0.365

OCCO [1,2-ethanediol] + O
Details | mass density [kg/m3]
283.15 K | 1059.35
293.15 K | 1054.78
303.15 K | 1049.78
313.15 K | 1044.38
323.15 K | 1038.57
333.15 K | 1032.23

— the NIST ThermoML archive (doi:10.1016/j.fluid.2018.11.035)
